Reference: patent publication US20250177339A1, “Methods for Treating Tauopathy” (BioJiva LLC, priority 2020, published 2025)
Entries after “also recorded” stand apart in the source; their conditions may differ.

Experiments:
[1] = Pharmacokinetic sampling: ratio of D2-AA to AA in red blood cells of treated patients; type: in vivo, human
Method: (§1) Three patients diagnosed with likely PSP underwent baseline assessment using the 28-item Progressive Supranuclear Palsy Rating Scale (PSPRS) and the Unified Parkinson's Disease Rating Scale (UPDRS). They were then treated with D2-Lin (2.88 g BID; 5.76 g total daily dose) and observed for disease progression. The second patient had their dose increased (2.88 g TID; 8.64 g total daily dose) after the first year of treatment. During the treatment period, scores in the 2 rating scales were determined every 3 months. Pharmacokinetic (PK) sampling was performed at month 3. These analytes included plasma and RBC membrane levels of (D2-LA) and its centrally active metabolite D2-AA.
At 3 months, the following data was collected:
At 12 months, the following data was collected:
The above results evidence that a percent ratio of 11,11-D2-AA to AA in red blood cells of about 3% is necessary to achieve therapeutic results.

SROS-MSCs = assay: Mitochondrial membrane potential (fluorescent indicator, TMRM) in SROS MSCs; type: cell-based, human; settings: SROS cells from SROS patients; incubation for 72 hours
Method: (§2) The effect of D2-Lin on mesenchymal stem cells derived from patients with SROS was assessed using non-deuterated Lin as a control. MSC preparations from bone marrow aspirates from control subjects were compared to 3 subjects with SROS, following protocols described in Hill S., et al., Free Radic. Biol. Med. (2012) 53:893-906; and Cotticelli M G., et al., Redox Biol. (2013) 1:398-404.
(§3) MMP is an important indicator of mitochondrial health and is typically kept at […] values (100-140 mV). A long-lasting drop or rise of normal MMP levels may induce loss of cell viability and various pathologies. ROS and LPO levels are directly linked to MMP, and increase exponentially at MMP>140 mV. […]
(§4) MSC preparations from BM were obtained from control subjects and from the PSP subjects following previously described protocols. […] MSC identity was previously assessed. […]
(§5) For assessments of glutathione levels, the PSP-MSCs cultures were incubated with 50 μM monochlorobimane (MCB) (Molecular Probes, Invitrogen) for 40 minutes in HEPES buffered salt solution prior to imaging. Cells were then washed with HEPES buffered salt solution and images of the fluorescence of the MCB-GSH were acquired using a Zeiss 710 CLSM with excitation at 405 nm and emission at 435-485 nm. […] The fluorescence measurement was obtained by excitation with 561 nm laser and emission detected above 580 nm. […]

SROS MSCs [2] = assay: Rate of lipid peroxidation (BODIPY C11) in SROS/PSP MSCs; type: cell-based, human; settings: 72-hour incubation; for rate of lipid peroxidation (LPO), in words: SROS/PSP MSCs, BODIPY C11
Method: as §2
(§6) LPO has been implicated as an early and pivotal factor in SROS. Specifically, increased levels of n-6 PUFA oxidation products such as 4-HNE were reported, as a direct consequence of the LPO chain reaction. Accordingly, the difference in basal MMP and ROS generation between control and the 3 cell lines of SROS MSCs was associated with increased rates of LPO, as detected by the LPO-specific probe, BODIPY C11.
(§7) MSC preparations from BM were obtained from control subjects and from the PSP subjects following previously described protocols. In short, MSCs were isolated from BM aspirates seeding 50,000 mononucleated cells/cm2 in αMEM (Thermo Fisher Scientific, Waltham, MA, USA) supplemented with 10% fetal bovine serum (FBS; Thermo Fisher Scientific), in T75 flasks. The cultures were incubated at 37° C., 20% O2, 5% CO2. Medium changes were performed twice a week. Two weeks after initial seeding, primary MSC colonies were detached with a 10-minute incubation at 37° C. with TrypLE Select Enzyme (Thermo Fisher Scientific) and replated at 4000 cells/cm^2 in the same medium. MSC identity was previously assessed. Subsequent passages were performed following the same steps. Passage 4-6 MSCs were used for all experiments. […]
(§8) Lipid peroxidation was measured using confocal microscopy (Zeiss 710 LSM with an integrated META detection system). The rate of lipid peroxidation was measured using C11-BODIPY 581/591 ([…]; Molecular probes) which was excited by the 488 and 543 nm laser line and fluorescence measured using a band-pass filter from 505 to 550 nm and 560 nm long-pass filter (40× oil-objective). […]

[3] = system: MSCs derived from patients with SROS; assay: Mitochondrial health (morphology, number, function) of SROS MSCs; type: cell-based, human; settings: incubation for 72 hours
Method: as §2
These include changes in mitochondrial morphology, number, and function.

control MSCs [4] = assay: Rate of lipid peroxidation (BODIPY C11) in control MSCs; type: cell-based, human; settings: 72-hour incubation
Method: as §2, §6
as §8, with “oil-objective). Illumination intensity was kept to a minimum (0.1-0.2% of laser output) to prevent phototoxicity and the pinhole was set to give an optical slice of […].” for “oil-objective).”

control MSC = assay: Mitochondrial DNA level (PicoGreen fluorescence in non-nuclear area) in control MSCs; type: cell-based, human; settings: after 72 hours incubation, from 100% before
Method: as §2
(§9) The number of mitochondria within the cells is regulated by the balance between mitochondrial biogenesis and mitophagy. Accordingly, for the normal maintenance of the mitochondrial balance, SROS-MSCs should activate mitochondrial biogenesis. […] Various factors, for example excessive fusion can result in a lower number of mitochondria in the cell, leading to impaired respiration, a lower production of ATP, and increased oxidative damage. Arun et al., Curr. Neuropharmacol. (2016) 14:143-154. However, after 72 hours incubation of the cells with D2-PUFAs mitochondrial DNA increased for both control and SROS MSCs.

SROS-MSC = assay: Mitochondrial DNA level (PicoGreen fluorescence in non-nuclear area) in SROS MSCs; type: cell-based, human; settings: after 72 hours incubation, from 67.5% before, relative to control MSC 100%
Method: as §2, §9

[5] = system: patients diagnosed with likely PSP; assay: Progressive Supranuclear Palsy Rating Scale (PSPRS) in treated patients; type: in vivo, human; settings: three PSP patients; 2.88 g BID; after 3 months of therapy; historical decline 0.91 points/month; +/-0.23 SEM
Method: as §1
(§10) The three patients were 2 males ([…]) and one person each of whom had pre-treatment symptom duration of 6 years and 3 years for the two males and 2 years for the person. The baseline PSPRS for the two males was 17 and 12 respectively and 13 for the person. The baseline UPDRS for the two males was 44 and 36 respectively and 21 for the person.
(§11) After 3 months of therapy, the slope of the PSPRS changed from the historical decline of 0.91 points/month to a mean of decline of 0.16 points/month (+/−0.23 SEM). The UPDRS slope changed from an expected increase of 0.95 points/month to an average increase in score of 0.28 points/month (+/−0.41 SEM).

[6] = system: patients diagnosed with likely PSP; assay: Unified Parkinson's Disease Rating Scale (UPDRS) in treated patients; type: in vivo, human; settings: three PSP patients; 2.88 g BID; after 3 months of therapy; expected increase 0.95 points/month; +/-0.41 SEM
Method: as §1, §10, §11

SROS MSCs [7] = assay: Glutathione level (monochlorobimane) in SROS/PSP MSCs; type: cell-based, human; settings: for glutathione (GSH) level, in words: SROS/PSP MSCs, MCB intensity
Method: as §2
Glutathione-related machinery is the major mechanism involved with slowing down the inhibition/propagation the LPO chain as well as mopping up the toxic end products of LPO. Consumption of the endogenous antioxidant glutathione is an indirect measure of oxidative stress.
as §7
For assessments of glutathione levels, the PSP-MSCs cultures were incubated with 50 μM monochlorobimane (MCB) (Molecular Probes, Invitrogen) for 40 minutes in HEPES buffered salt solution prior to imaging. Cells were then washed with HEPES buffered salt solution and images of the fluorescence of the MCB-GSH were acquired using a Zeiss 710 CLSM with excitation at 405 nm and emission at 435-485 nm. Mitochondrial ROS generation rate was assessed using MitoTracker® Red CM-H2XRos (Thermo Fisher Scientific) which accumulates into mitochondria upon oxidation. The fluorescence measurement was obtained by excitation with 561 nm laser and emission detected above 580 nm. Mitochondrial membrane potential (ΔΨm) was assessed using 25 nM tetramethylrhodamine methyl ester (TMRM, Thermo Fisher Scientific) at 560 nm excitation and fluorescence was measured above 580 nm. Z-stack images were collected and the fluorescence intensity of TMRM was analyzed using Zen software (Zeiss). […]
Glutathione levels were measured using MCB. […]

SROS MSCs [8] = assay: Mitochondrial shape in SROS MSCs; type: cell-based, human; settings: pre-treatment
Method: as §2
Presynaptic terminals typically contain multiple mitochondria. Misshaped mitochondria can clog the pathways that transport them along neurons and through long axons and elaborate dendritic arbors. Mattson et al., Neuron (2009) 60:748-766. Accordingly, mitochondrial shape is another characteristic of mitochondrial health. Also, the communication pathway between ER and mitochondria through MAM is compromised in misshaped mitochondria, further disturbing protein folding, lipid metabolism, Ca^2+ homeostasis and apoptosis. Lee et al., Mol. Cells (2018) 41:1000-1007. Coincident with the improvements in MMP with D-PUFA incubation, the abnormalities of mitochondrial shape seen in SROS MSCs were improved with D-PUFA pre-treatment, resulting in more uniformly looking mitochondria.

control MSCs [9] = assay: Mitochondrial membrane potential (fluorescent indicator, TMRM) in control MSCs; type: cell-based, human; settings: incubation for 72 hours
Method: as §2, §3, §4, §5

% ratio of 11,11-D2-AA to AA ([1]; Patient 1, evaluated at 4 months of D2-Lin treatment)	% ratio of 11,11-D2-AA to AA ([1]; Patient 1, evaluated at 13 months of D2-Lin treatment)	% ratio of 11,11-D2-AA to AA ([1]; Patient 2, at 3 months of D2-Lin treatment)	% ratio of 11,11-D2-AA to AA ([1]; Patient 2, at 12 months of D2-Lin treatment)	% ratio of 11,11-D2-AA to AA ([1]; Patient 3, at 3 months of D2-Lin treatment)	% ratio of 11,11-D2-AA to AA ([1]; Patient 3, at 12 months of D2-Lin treatment)	Compound	mitochondrial membrane potential (MMP) (SROS-MSCs)	rate of lipid peroxidation (LPO) (SROS MSCs [2]; SROS MSCs, % of control, from 161.8% before, N=8)	rate of lipid peroxidation (LPO), in words (SROS MSCs [2])	mitochondrial morphology, number, and function [3]	rate of LPO, % of the pre-treatment value (control MSCs [4])	level of mitochondrial DNA (estimation of number of mitochondria) (control MSC)	level of mitochondrial DNA (estimation of number of mitochondria) (SROS-MSC)	slope of the PSPRS, mean decline [5]	UPDRS slope, average increase in score [6]	glutathione (GSH) level, in words (SROS MSCs [7])	glutathione (GSH) level, in words (SROS MSCs [7]; listed as D2-PUFAs)	abnormalities of mitochondrial shape (SROS MSCs [8])	mitochondrial membrane potential (MMP) (control MSCs [9])	glutathione levels less than those found in the D2-Lin test (SROS MSCs [7]; PSP MSCs, after incubation, compared with D2-Lin-incubated PSP MSCs)
5.9%	10.5%	3.3%	6.9%	5%	8.6%	[2H]C([2H])(/C=C\C/C=C\C/C=C\CCCC(=O)O)/C=C\CCCCC [13,13-D2-Arachadonic acid]														
						[2H]C([2H])(/C=C\CCCCC)/C=C\CCCCCCCC(=O)O [D2-Lin, 11,11-D2-Linoleic acid]	reduced	109.8%	reversed; also recorded: restored the SROS MSCs to normal levels; also recorded: returned to normal levels	restores these parameters to control MSC levels	84.3%	109%	105.4%	0.16 points/month	0.28 points/month	reversed; also recorded: restored to HC levels	significantly increased	improved	no effect	
						CCCCC/C=C\C/C=C\CCCCCCCC(=O)O [H2-LA, Non-deuterated linoleic acid, reference compound]			remained elevated at over two times that of the treated levels							remained low				about 30%
